Assays:
Assay in all cases: KINOMEscan scanMAX
CSNK1A1 = CSNK1A1 (Homo sapiens (Human), UniProt P48729); format: binding; details: 2000 nM; read-out: Percent Control
MARK2 = MARK2 (Homo sapiens (Human), UniProt Q7KZI7); format: binding; details: 2000 nM; read-out: Percent Control
CDC2L5 (CDK13) = CDC2L5 (CDK13) (Homo sapiens (Human), UniProt Q14004); format: binding; details: 2000 nM; read-out: Percent Control
AKT3 = AKT3 (Homo sapiens (Human), UniProt Q9Y243); format: binding; details: 2000 nM; read-out: Percent Control
AKT3, sequence (Q9Y243 whole entry): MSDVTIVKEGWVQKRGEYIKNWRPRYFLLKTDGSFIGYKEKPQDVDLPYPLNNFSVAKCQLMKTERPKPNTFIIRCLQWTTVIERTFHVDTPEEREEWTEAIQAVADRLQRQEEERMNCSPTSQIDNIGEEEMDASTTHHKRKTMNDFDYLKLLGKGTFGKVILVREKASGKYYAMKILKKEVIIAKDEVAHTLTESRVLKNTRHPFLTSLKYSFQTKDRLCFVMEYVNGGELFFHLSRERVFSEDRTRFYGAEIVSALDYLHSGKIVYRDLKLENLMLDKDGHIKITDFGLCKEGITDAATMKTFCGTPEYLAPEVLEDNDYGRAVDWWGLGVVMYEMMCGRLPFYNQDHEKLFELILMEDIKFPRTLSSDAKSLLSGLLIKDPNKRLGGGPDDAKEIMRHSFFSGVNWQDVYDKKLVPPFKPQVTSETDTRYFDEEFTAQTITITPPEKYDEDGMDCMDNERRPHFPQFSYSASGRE

DCAMKL2 (DCLK2) = DCAMKL2 (DCLK2) (Homo sapiens (Human), UniProt Q8N568); format: binding; details: 2000 nM; read-out: Percent Control
FLT3-autoinhibited = FLT3-autoinhibited (Homo sapiens (Human), UniProt P36888); format: binding; details: 2000 nM; read-out: Percent Control
PIK3CA(E545A) = PIK3CA(E545A) (Homo sapiens (Human), UniProt P42336, E545A); format: binding; details: 2000 nM; read-out: Percent Control
PIM3 = PIM3 (Homo sapiens (Human), UniProt Q86V86); format: binding; details: 2000 nM; read-out: Percent Control
TAK1 (MAP3K7) = TAK1 (MAP3K7) (Homo sapiens (Human), UniProt O43318); format: binding; details: 2000 nM; read-out: Percent Control
RIPK1 = RIPK1 (Homo sapiens (Human), UniProt Q13546); format: binding; details: 2000 nM; read-out: Percent Control
RIPK1, sequence (Q13546 whole entry): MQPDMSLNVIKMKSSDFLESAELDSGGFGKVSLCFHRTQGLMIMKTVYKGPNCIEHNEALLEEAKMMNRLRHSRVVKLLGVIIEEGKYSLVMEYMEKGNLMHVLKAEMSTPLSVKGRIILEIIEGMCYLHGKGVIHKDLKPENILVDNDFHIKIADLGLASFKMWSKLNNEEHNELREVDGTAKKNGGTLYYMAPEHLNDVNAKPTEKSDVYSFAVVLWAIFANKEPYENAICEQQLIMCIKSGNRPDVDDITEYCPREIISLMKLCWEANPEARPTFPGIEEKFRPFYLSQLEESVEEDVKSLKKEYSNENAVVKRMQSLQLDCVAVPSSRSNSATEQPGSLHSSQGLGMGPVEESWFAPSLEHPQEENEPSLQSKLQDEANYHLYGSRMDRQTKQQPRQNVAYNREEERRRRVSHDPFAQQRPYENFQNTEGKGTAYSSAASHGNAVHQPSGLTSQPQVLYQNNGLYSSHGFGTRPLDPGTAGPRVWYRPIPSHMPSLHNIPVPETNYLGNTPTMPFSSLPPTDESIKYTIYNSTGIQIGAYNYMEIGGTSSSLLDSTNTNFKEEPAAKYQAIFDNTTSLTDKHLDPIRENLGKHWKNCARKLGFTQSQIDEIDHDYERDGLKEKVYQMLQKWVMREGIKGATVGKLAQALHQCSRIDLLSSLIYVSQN

ULK1 = ULK1 (Homo sapiens (Human), UniProt O75385); format: binding; details: 2000 nM; read-out: Percent Control
DAPK3 = DAPK3 (Homo sapiens (Human), UniProt O43293); format: binding; details: 2000 nM; read-out: Percent Control
MAP4K4 = MAP4K4 (Homo sapiens (Human), UniProt O95819); format: binding; details: 2000 nM; read-out: Percent Control
PRKCD = PRKCD (Homo sapiens (Human), UniProt Q05655); format: binding; details: 2000 nM; read-out: Percent Control
MST1 (STK4) = MST1 (STK4) (Homo sapiens (Human), UniProt Q13043); format: binding; details: 2000 nM; read-out: Percent Control
JNK2 (MAPK9) = JNK2 (MAPK9) (Homo sapiens (Human), UniProt P45984); format: binding; details: 2000 nM; read-out: Percent Control
JNK2 (MAPK9), sequence (P45984 whole entry): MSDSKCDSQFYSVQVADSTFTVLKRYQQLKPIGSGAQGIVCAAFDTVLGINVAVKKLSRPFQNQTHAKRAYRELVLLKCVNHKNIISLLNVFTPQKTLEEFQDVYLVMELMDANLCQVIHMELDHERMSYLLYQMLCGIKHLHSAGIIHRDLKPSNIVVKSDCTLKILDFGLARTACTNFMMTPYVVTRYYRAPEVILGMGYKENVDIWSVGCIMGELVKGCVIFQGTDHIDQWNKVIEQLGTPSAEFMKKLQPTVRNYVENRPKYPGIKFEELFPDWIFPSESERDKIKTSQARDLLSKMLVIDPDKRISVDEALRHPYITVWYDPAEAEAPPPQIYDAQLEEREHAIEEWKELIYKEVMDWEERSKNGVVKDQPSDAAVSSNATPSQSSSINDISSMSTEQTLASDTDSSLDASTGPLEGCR

KIT(V559D, T670I) = KIT(V559D, T670I) (Homo sapiens (Human), UniProt P10721, T670I/V559D); format: binding; details: 2000 nM; read-out: Percent Control
[1] = target: ABL1(F317I)-phosphorylated (Homo sapiens (Human), UniProt P00519, F317I); format: binding; details: 2000 nM; read-out: Percent Control
EPHB3 = EPHB3 (Homo sapiens (Human), UniProt P54753); format: binding; details: 2000 nM; read-out: Percent Control
PKAC-beta (PRKACB) = PKAC-beta (PRKACB) (Homo sapiens (Human), UniProt P22694); format: binding; details: 2000 nM; read-out: Percent Control
MEK3 (MAP2K3) = MEK3 (MAP2K3) (Homo sapiens (Human), UniProt P46734); format: binding; details: 2000 nM; read-out: Percent Control
MYLK2 = MYLK2 (Homo sapiens (Human), UniProt Q9H1R3); format: binding; details: 2000 nM; read-out: Percent Control
QSK (KIAA0999) = QSK (KIAA0999) (Homo sapiens (Human), UniProt Q9Y2K2); format: binding; details: 2000 nM; read-out: Percent Control
QSK (KIAA0999), sequence (Q9Y2K2 whole entry): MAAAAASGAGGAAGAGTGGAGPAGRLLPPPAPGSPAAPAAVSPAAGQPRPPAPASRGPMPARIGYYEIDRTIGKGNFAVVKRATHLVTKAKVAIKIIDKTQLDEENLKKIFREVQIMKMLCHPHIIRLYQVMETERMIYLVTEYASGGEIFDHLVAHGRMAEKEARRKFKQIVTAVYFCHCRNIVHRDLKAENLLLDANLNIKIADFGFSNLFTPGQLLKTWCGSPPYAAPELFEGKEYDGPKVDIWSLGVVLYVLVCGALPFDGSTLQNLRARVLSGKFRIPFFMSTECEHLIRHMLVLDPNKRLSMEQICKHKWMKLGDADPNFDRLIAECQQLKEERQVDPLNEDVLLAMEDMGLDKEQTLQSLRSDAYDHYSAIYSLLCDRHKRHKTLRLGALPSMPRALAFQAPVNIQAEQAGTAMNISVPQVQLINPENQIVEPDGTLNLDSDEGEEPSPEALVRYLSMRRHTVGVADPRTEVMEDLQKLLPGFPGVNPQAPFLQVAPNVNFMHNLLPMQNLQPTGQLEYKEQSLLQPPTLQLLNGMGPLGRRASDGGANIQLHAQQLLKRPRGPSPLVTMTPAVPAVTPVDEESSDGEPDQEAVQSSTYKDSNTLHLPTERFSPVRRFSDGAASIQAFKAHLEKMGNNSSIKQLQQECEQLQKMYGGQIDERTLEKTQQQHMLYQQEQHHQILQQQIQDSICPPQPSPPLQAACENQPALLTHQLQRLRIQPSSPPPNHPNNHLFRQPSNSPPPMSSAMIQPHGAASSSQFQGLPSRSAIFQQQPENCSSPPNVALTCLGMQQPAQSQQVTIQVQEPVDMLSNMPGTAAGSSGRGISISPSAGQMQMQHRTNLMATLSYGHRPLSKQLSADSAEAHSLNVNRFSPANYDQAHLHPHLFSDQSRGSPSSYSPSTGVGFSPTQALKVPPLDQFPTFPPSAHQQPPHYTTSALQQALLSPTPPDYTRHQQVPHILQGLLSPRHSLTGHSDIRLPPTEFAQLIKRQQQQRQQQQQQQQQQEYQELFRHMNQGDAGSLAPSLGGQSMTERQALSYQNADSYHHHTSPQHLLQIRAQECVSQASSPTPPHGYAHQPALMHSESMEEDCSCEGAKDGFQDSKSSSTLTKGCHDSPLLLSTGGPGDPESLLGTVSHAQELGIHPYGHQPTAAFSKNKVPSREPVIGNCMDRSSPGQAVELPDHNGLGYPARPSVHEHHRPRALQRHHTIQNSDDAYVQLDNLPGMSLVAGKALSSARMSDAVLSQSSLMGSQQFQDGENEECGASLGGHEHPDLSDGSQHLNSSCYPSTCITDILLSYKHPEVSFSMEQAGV

INSRR = INSRR (Homo sapiens (Human), UniProt P14616); format: binding; details: 2000 nM; read-out: Percent Control
FLT3(ITD, D835V) = format: binding, human; details: 2000 nM
RIOK3 = RIOK3 (Homo sapiens (Human), UniProt O14730); format: binding; details: 2000 nM; read-out: Percent Control
FRK = FRK (Homo sapiens (Human), UniProt P42685); format: binding; details: 2000 nM; read-out: Percent Control
FLT3(D835Y) = FLT3(D835Y) (Homo sapiens (Human), UniProt P36888, D835Y); format: binding; details: 2000 nM; read-out: Percent Control
RET = RET (Homo sapiens (Human), UniProt P07949); format: binding; details: 2000 nM; read-out: Percent Control
DYRK2 = DYRK2 (Homo sapiens (Human), UniProt Q92630); format: binding; details: 2000 nM; read-out: Percent Control
HIPK3 = HIPK3 (Homo sapiens (Human), UniProt Q9H422); format: binding; details: 2000 nM; read-out: Percent Control
EGFR = EGFR (Homo sapiens (Human), UniProt P00533); format: binding; details: 2000 nM; read-out: Percent Control
CAMK2G = CAMK2G (Homo sapiens (Human), UniProt Q13555); format: binding; details: 2000 nM; read-out: Percent Control
NDR1 (STK38) = NDR1 (STK38) (Homo sapiens (Human), UniProt Q15208); format: binding; details: 2000 nM; read-out: Percent Control
[2] = target: RPS6KA4(Kin.Dom.1-N-terminal) (Homo sapiens (Human), UniProt O75676); format: binding; details: 2000 nM; read-out: Percent Control
MERTK = MERTK (Homo sapiens (Human), UniProt Q12866); format: binding; details: 2000 nM; read-out: Percent Control
MINK (MINK1) = MINK (MINK1) (Homo sapiens (Human), UniProt Q8N4C8); format: binding; details: 2000 nM; read-out: Percent Control
TNIK = TNIK (Homo sapiens (Human), UniProt Q9UKE5); format: binding; details: 2000 nM; read-out: Percent Control
TNIK, sequence (Q9UKE5 whole entry): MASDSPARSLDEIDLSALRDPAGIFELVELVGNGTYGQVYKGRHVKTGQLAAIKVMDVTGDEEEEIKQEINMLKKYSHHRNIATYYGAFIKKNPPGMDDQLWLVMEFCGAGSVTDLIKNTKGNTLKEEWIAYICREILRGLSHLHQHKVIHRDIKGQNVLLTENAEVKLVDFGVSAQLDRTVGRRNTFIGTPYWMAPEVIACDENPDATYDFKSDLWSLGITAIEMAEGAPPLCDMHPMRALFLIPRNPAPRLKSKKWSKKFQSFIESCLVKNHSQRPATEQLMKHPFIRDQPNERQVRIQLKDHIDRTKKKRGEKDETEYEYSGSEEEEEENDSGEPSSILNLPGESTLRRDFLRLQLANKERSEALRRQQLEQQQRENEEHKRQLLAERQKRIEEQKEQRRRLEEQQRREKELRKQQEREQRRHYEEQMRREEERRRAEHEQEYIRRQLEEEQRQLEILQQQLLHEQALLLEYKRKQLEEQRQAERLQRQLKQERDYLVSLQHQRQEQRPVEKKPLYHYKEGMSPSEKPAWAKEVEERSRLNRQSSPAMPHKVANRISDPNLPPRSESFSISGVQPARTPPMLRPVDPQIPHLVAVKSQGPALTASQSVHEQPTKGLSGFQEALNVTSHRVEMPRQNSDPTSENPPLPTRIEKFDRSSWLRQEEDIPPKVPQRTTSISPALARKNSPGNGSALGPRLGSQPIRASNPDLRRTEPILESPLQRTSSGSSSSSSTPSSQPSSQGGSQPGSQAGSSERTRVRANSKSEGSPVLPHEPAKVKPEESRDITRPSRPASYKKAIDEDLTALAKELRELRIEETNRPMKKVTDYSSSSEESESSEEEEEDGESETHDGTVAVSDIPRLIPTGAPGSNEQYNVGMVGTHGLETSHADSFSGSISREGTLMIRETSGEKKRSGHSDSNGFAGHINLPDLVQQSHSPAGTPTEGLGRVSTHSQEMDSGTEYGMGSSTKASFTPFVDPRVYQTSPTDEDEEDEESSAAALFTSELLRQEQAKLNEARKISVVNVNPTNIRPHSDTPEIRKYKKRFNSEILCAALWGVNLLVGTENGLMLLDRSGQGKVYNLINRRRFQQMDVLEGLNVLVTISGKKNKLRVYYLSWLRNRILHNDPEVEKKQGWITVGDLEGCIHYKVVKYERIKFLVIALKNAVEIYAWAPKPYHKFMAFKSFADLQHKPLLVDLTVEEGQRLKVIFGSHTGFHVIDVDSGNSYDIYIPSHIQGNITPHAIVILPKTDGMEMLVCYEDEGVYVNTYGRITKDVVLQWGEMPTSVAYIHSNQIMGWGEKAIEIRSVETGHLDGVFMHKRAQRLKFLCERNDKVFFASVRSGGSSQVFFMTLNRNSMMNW

ACVR1 = ACVR1 (Homo sapiens (Human), UniProt Q04771); format: binding; details: 2000 nM; read-out: Percent Control
GRK3 (ADRBK2) = GRK3 (ADRBK2) (Homo sapiens (Human), UniProt P35626); format: binding; details: 2000 nM; read-out: Percent Control

MARK2, sequence (Q7KZI7 whole entry): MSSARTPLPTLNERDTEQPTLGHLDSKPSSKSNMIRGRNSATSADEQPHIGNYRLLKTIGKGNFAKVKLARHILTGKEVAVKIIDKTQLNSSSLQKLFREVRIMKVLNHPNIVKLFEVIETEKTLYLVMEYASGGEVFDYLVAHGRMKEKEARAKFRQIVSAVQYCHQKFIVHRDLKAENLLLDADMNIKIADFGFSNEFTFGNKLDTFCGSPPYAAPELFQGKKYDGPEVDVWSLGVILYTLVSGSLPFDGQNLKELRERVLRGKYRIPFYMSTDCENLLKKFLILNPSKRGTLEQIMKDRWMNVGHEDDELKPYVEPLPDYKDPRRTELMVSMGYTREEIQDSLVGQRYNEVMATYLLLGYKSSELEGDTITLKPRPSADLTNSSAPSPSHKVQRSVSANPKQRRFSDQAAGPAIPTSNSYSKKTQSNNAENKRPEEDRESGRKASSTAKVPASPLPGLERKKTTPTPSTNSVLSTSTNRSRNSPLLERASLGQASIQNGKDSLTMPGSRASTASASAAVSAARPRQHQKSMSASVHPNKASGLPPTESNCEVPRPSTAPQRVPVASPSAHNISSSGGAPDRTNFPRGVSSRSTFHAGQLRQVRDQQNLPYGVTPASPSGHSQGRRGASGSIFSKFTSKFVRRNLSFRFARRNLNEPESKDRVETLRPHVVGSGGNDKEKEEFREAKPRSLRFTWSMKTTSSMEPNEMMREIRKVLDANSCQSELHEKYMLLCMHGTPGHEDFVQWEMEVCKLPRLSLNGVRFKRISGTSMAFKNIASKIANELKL

`CN1CCN(C(=O)c2ccc3cc(CCNc4ccnc5ccc(C#N)cc45)ccc3c2)CC1` [compound 6148, 4-((2-(6-(4-methylpiperazine-1-carbonyl)naphthalen-2-yl)ethyl)amino)quinoline-6-carbonitrile] was tested, and the remaining binding at 2 µM (CSNK1A1) was 76%, the remaining binding at 2 µM (MARK2) was 100% and the remaining binding at 2 µM (CDC2L5 (CDK13)) was 64%. The remaining binding at 2 µM (AKT3) was 100%, the remaining binding at 2 µM (DCAMKL2 (DCLK2)) was 94% and the remaining binding at 2 µM (FLT3-autoinhibited) was 88%. The remaining binding at 2 µM (PIK3CA(E545A)) was 73%, the remaining binding at 2 µM (PIM3) was 96% and the remaining binding at 2 µM (TAK1 (MAP3K7)) was 63%. It also gave a remaining binding at 2 µM (RIPK1) of 100%, a remaining binding at 2 µM (ULK1) of 66% and a remaining binding at 2 µM (DAPK3) of 95%. It also gave a remaining binding at 2 µM (MAP4K4) of 93%, a remaining binding at 2 µM (PRKCD) of 83% and a remaining binding at 2 µM (MST1 (STK4)) of 95%. It also gave a remaining binding at 2 µM (JNK2 (MAPK9)) of 67%, a remaining binding at 2 µM (KIT(V559D, T670I)) of 90% and a remaining binding at 2 µM [1] of 89%. It also gave a remaining binding at 2 µM (EPHB3) of 81%, a remaining binding at 2 µM (PKAC-beta (PRKACB)) of 100% and a remaining binding at 2 µM (MEK3 (MAP2K3)) of 87%. It also gave a remaining binding at 2 µM (MYLK2) of 91%, a remaining binding at 2 µM (QSK (KIAA0999)) of 55% and a remaining binding at 2 µM (INSRR) of 88%. For the same compound, the “Percent Control” value (FLT3(ITD, D835V)) was 55%, the remaining binding at 2 µM (RIOK3) was 85% and the remaining binding at 2 µM (FRK) was 92%. It also gave a remaining binding at 2 µM (FLT3(D835Y)) of 73%, a remaining binding at 2 µM (RET) of 100% and a remaining binding at 2 µM (DYRK2) of 68%. It also gave a remaining binding at 2 µM (HIPK3) of 52%, a remaining binding at 2 µM (EGFR) of 91% and a remaining binding at 2 µM (CAMK2G) of 100%. For the same compound, the remaining binding at 2 µM (NDR1 (STK38)) was 79%, the remaining binding at 2 µM [2] was 100% and the remaining binding at 2 µM (MERTK) was 89%. For the same compound, the remaining binding at 2 µM (MINK (MINK1)) was 56%, the remaining binding at 2 µM (TNIK) was 89% and the remaining binding at 2 µM (ACVR1) was 92%. The remaining binding at 2 µM (GRK3 (ADRBK2)) was 73%.

Source: patent US12281080B2, “Quinoline-based compounds and methods of inhibiting CDK8/19” (University of South Carolina, priority 2018, dated 2025)
